# Patent publication US8299048B2, “Hexahydrocyclopentyl[f]indazole sulfonamides and derivatives thereof as selective glucocorticoid receptor modulators” (Merck Sharp & Dohme Corp., priority 2008, dated 2012)
# Like-named read-outs stand apart in the source and are kept apart here.
# Molecular target: T1, human GR (Homo sapiens, UniProt P04150)
# T1 sequence (P04150 1-777): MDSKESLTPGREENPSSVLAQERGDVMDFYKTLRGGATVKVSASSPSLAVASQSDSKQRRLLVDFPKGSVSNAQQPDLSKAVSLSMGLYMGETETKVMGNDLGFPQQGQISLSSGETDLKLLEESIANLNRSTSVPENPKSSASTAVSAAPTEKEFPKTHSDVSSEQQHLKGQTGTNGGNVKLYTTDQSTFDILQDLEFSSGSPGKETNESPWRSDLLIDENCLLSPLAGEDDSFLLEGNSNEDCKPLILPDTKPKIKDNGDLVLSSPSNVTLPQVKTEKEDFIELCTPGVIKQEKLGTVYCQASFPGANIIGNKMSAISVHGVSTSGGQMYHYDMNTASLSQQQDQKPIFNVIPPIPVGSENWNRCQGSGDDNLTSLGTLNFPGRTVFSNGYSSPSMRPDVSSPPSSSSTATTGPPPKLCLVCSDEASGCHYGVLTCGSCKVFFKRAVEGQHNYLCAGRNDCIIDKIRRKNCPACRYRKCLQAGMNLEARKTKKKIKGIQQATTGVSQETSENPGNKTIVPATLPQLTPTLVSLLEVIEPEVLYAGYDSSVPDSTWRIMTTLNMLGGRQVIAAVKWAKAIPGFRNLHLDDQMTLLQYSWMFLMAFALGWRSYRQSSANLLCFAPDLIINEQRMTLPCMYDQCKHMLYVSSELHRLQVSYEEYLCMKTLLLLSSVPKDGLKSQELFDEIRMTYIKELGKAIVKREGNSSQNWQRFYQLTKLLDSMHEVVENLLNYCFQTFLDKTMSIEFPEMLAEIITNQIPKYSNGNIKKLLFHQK
# Test: Transrepression Assay (GITAR), TNFα-β-lactamase reporter in U937 cells
# Type: cell-based
# Parameters: U937 cells contain an endogenous glucocorticoid receptor (GR); endogenous in cells; host or cells: U937 cells stably transfected with the TNF-alpha promoter/beta-lactamase reporter
# Settings: for GITAR > GRAMM % SEP: GITAR Emax minus GRAMMER Emax; for EC50: U937 cells, inflection point, read-out: Transrepression U937 Cells GITAR IP
# Summary of the method: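 U937 cells with endogenous GR, stably carrying TNFα promoter–β-lactamase, preincubated with compound 30–45 min at 37° C, then stimulated with PMA 5 ng/ml and LPS 100 ng/ml (final) ~18 hr. Read-out via CCF2-AM loading; repression by 100 nM dexamethasone set as 100%.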
# [1] = U-937, U937 cells, maximum activity, read-out: Transrepression U937 Cells GITAR Emax
# [2] = U-937, activity repressed by 100 nM dexamethasone alone set as 100%, read-out: maximal activity in the transrepression (GITAR) assay
SMILES,GITAR > GRAMM % SEP [%],EC50 [µM],Emax [1] [%],Emax [2] [%]
"CN(C[C@H]1CCC2=Cc3c(cnn3-c3ccc(F)cc3)C[C@@]21C)S(=O)(=O)CC(F)(F)F [Example 177, 2,2,2-trifluoro-N-{[(4αR,5S)-1-(4-fluorophenyl)-4α-methyl-1,4,4α,5,6,7-hexahydrocyclopenta[f]indazol-5-yl]methyl}-N-methylethanesulfonamide]",12.9,0.177,80.2,> 5
"CCN(C[C@H]1CCC2=Cc3c(cnn3-c3ccc(F)cc3)C[C@@]21C)S(=O)(=O)c1c(C)noc1C [Example 178, N-ethyl-N-{[(4αR,5S)-1-(4-fluorophenyl)-4α-methyl-1,4,4α,5,6,7-hexahydrocyclopenta[f]indazol-5-yl]methyl}-3,5-dimethylisoxazole-4-sulfonamide]",19.5,0.276,74.5,> 5
"CCN(C[C@H]1CCC2=Cc3c(cnn3-c3ccc(F)cc3)C[C@@]21C)S(=O)(=O)CC(F)(F)F [Example 179, N-ethyl-2,2,2-trifluoro-N-{[(4αR,5S)-1-(4-fluorophenyl)-4α-methyl-1,4,4α,5,6,7-hexahydrocyclopenta[f]indazol-5-yl]methyl}ethanesulfonamide]",31.2,0.44,96.5,> 5
"COC(=O)c1ccccc1CS(=O)(=O)N(C[C@H]1CCC2=Cc3c(cnn3-c3ccc(F)cc3)C[C@@]21C)C[C@@H](C)O [Example 180, methyl 2-[({{[(4αR,5S)-1-(4-fluorophenyl)-4α-methyl-1,4,4α,5,6,7-hexahydrocyclopenta[f]indazol-5-yl]methyl}[(2R)-2-hydroxypropyl]amino}sulfonyl)methyl]benzoatee]",39.5,0.187,77.7,> 5
"COC(=O)c1ccccc1CS(=O)(=O)N(C[C@H]1CCC2=Cc3c(cnn3-c3ccc(F)cc3)C[C@@]21C)C[C@H](C)O [Example 181, methyl 2-[({{[(4αR,5S)-1-(4-fluorophenyl)-4α-methyl-1,4,4α,5,6,7-hexahydrocyclopenta[f]indazol-5-yl]methyl}[(2S)-2-hydroxypropyl]amino}sulfonyl)methyl]benzoate]",24.7,0.263,79.2,> 5
"C[C@@H](O)CN(C[C@H]1CCC2=Cc3c(cnn3-c3ccc(F)cc3)C[C@@]21C)S(=O)(=O)Cc1ccccc1C(=O)O [Example 182, 2-[({{[(4αR,5S)-1-(4-fluorophenyl)-4α-methyl-1,4,4α,5,6,7-hexahydrocyclopenta[f]indazol-5-yl]methyl}[(2R)-2-hydroxypropyl]amino}sulfonyl)methyl]benzoic acid]",8.2,1.89,16.2,> 5
"C[C@H](O)CN(C[C@H]1CCC2=Cc3c(cnn3-c3ccc(F)cc3)C[C@@]21C)S(=O)(=O)Cc1ccccc1C(=O)O [Example 183, 2-[({{[(4αR,5S)-1-(4-fluorophenyl)-4α-methyl-1,4,4α,5,6,7-hexahydrocyclopenta[f]indazol-5-yl]methyl}[(2S)-2-hydroxypropyl]amino}sulfonyl)methyl]benzoic acid]",8.2,3.31,23.2,> 5
"C[C@@H](O)CN(C[C@H]1CCC2=Cc3c(cnn3-c3ccc(F)cc3)C[C@@]21C)S(=O)(=O)Cc1ccccc1C(N)=O [Example 184, 2-[({{[(4αR,5S)-1-(4-fluorophenyl)-4α-methyl-1,4,4α,5,6,7-hexahydrocyclopenta[f]indazol-5-yl]methyl}[(2R)-2-hydroxypropyl]amino}sulfonyl)methyl]benzamide]",38.7,0.562,60.3,> 5
"C[C@H](O)CN(C[C@H]1CCC2=Cc3c(cnn3-c3ccc(F)cc3)C[C@@]21C)S(=O)(=O)Cc1ccccc1C(N)=O [Example 185, 2-[({{[(4αR,5S)-1-(4-fluorophenyl)-4α-methyl-1,4,4α,5,6,7-hexahydrocyclopenta[f]indazol-5-yl]methyl}[(2S)-2-hydroxypropyl]amino}sulfonyl)methyl]benzamide]",43.1,0.676,63,> 5
"COC(=O)c1ccccc1S(=O)(=O)N(C[C@H]1CCC2=Cc3c(cnn3-c3ccc(F)cc3)C[C@@]21C)C[C@@H](C)O [Example 186, methyl 2-({{[(4αR,5S)-1-(4-fluorophenyl)-4α-methyl-1,4,4α,5,6,7-hexahydrocyclopenta[f]indazol-5-yl]methyl}[(2R)-2-hydroxypropyl]amino}sulfonyl)benzoate]",27.7,0.697,63.5,> 5
"COC(=O)c1ccccc1S(=O)(=O)N(C[C@H]1CCC2=Cc3c(cnn3-c3ccc(F)cc3)C[C@@]21C)C[C@H](C)O [Example 187, methyl 2-({{[(4αR,5S)-1-(4-fluorophenyl)-4α-methyl-1,4,4α,5,6,7-hexahydrocyclopenta[f]indazol-5-yl]methyl}[(2S)-2-hydroxypropyl]amino}sulfonyl)benzoate]",35.6,0.392,71.5,> 5
"COC(=O)c1ccccc1CS(=O)(=O)N(CCc1ccccc1F)C[C@H]1CCC2=Cc3c(cnn3-c3ccc(F)cc3)C[C@@]21C [Example 188, methyl 2-{[([2-(2-fluorophenyl)ethyl]{[(4αR,5S)-1-(4-fluorophenyl)-4α-methyl-1,4,4α,5,6,7-hexahydrocyclopenta[f]indazol-5-yl]methyl}amino)sulfonyl]methyl}benzoate]",30.1,0.19,60.5,> 5
"COC(=O)c1ccccc1S(=O)(=O)N(CCc1ccccc1F)C[C@H]1CCC2=Cc3c(cnn3-c3ccc(F)cc3)C[C@@]21C [Example 189, methyl 2-[([2-(2-fluorophenyl)ethyl]{[(4αR,5S)-1-(4-fluorophenyl)-4α-methyl-1,4,4α,5,6,7-hexahydrocyclopenta[f]indazol-5-yl]methyl}amino)sulfonyl]benzoate]",15.7,0.189,81,> 5
"C[C@]12Cc3cnn(-c4ccc(F)cc4)c3C=C1CC[C@@H]2CN(CCc1ccccc1F)S(=O)(=O)Cc1ccccc1C(N)=O [Example 190, 2-{[([2-(2-fluorophenyl)ethyl]{[(4αR,5S)-1-(4-fluorophenyl)-4α-methyl-1,4,4α,5,6,7-hexahydrocyclopenta[f]indazol-5-yl]methyl}amino)sulfonyl]methyl}benzamide]",12.4,0.388,77.4,> 5
"C[C@]12Cc3cnn(-c4ccc(F)cc4)c3C=C1CC[C@@H]2CN(CC1CCCO1)S(=O)(=O)c1ccc(C(N)=O)cc1 (stereo partly drawn) [Example 191, 4-{[{[(4αR,5S)-1-(4-fluorophenyl)-4α-methyl-1,4,4α,5,6,7-hexahydrocyclopenta[f]indazol-5-yl]methyl}(tetrahydrofuran-2-ylmethyl)amino]sulfonyl}benzamide]",10.1,0.441,37.2,> 5
"C[C@]12Cc3cnn(-c4ccc(F)cc4)c3C=C1CC[C@@H]2CN(Cc1ccccc1F)S(=O)(=O)c1cccc(C(N)=O)c1 [Example 192, 3-[((2-fluorobenzyl){[(4αR,5S)-1-(4-fluorophenyl)-4α-methyl-1,4,4α,5,6,7-hexahydrocyclopenta[f]indazol-5-yl]methyl}amino)sulfonyl]benzamide]",23.2,2.91,27.5,> 5
"C[C@]12Cc3cnn(-c4ccc(F)cc4)c3C=C1CC[C@@H]2CN(CCCc1ccccc1)S(=O)(=O)CC(F)(F)F [Example 193, 2,2,2-trifluoro-N-{[(4αR,5S)-1-(4-fluorophenyl)-4α-methyl-1,4,4α,5,6,7-hexahydrocyclopenta[f]indazol-5-yl]methyl}-N-(3-phenylpropyl)ethanesulfonamide]",18.6,0.17,74,> 5
